Laboratory results: patent publication US20100216749A1, “Combination Therapy for Neuroprotection” (S.H. PHARMA., LTD, priority 2007, published 2010)
Several values for one entry are separate records, joined by “and”; a condition that tells them apart may be missing. Equal values may be shown once.

Columns and labels:
[1] = system: middle cerebral artery occlusion (MCAO) stroke animal model; test: Cerebral infarction volume by TTC staining of brain sections after 1 h MCAO/reperfusion; assay type: in vivo, rat; settings: for concentration at which the size of cerebral infarction was inhibited most effectively: i.v. 1, 2, 5, 10 and 20 mg/kg; for cerebral infarction inhibited by: 4 hours after reperfusion (FIG. 11)
[2] = system: middle cerebral artery occlusion (MCAO) stroke animal model; test: Rota-rod test (motor skill) after MCAO/reperfusion; settings: i.v. 5 mg/kg; for motor skill recovered to, by normal motor skill: 6 hours after MCAO/reperfusion (FIG. 9)
Procedure: Motor skill of a rat damaged by MCAO was investigated by measuring retention time on Rota-rod (Rota-rod test).
Retention time of each rat on Rota-rod at 5 rpm was measured for 24 hours after MCAO for 1 hour. Next, each rat was also forced to stay on Rota-rod operating at the speeds of 10 rpm and 15 rpm and retention time of each rat was measured at one hour interval. […] The points herein were obtained from repeated experiments, which were performed at 1 hour interval at the speeds of 10 rpm and 15 rpm.

[3] = system: middle cerebral artery occlusion (MCAO) stroke animal model; test: Evaluation of neurologic deficit (static reflex test and forelimb placing test) after MCAO/reperfusion; assay type: in vivo, rat; settings: for neuronal damage / motor skill deficit improved: administered 6 hours after MCAO/reperfusion, Example 1 (FIG. 10)
Procedure: Forelimb placing was evaluated by the method described (0: immediate and complete placing, 1: incomplete and/or delayed placing, 2: no placing) (De Ryck M. et al., Stroke 20; 1388-1390). Points of static reflex and forelimb placing of each animal were summed.

stroke animal model = settings: cited from earlier work
[4] = i.v. 2.5 mg/kg each drug, 6 hours after reperfusion (Examples 9-12)
[5] = i.v. 5 mg/kg each drug, 6 hours after reperfusion (Examples 3-8)
[6] = 6 hours after reperfusion (FIG. 23)
[7] = i.v. 2.5 mg/kg each drug, 6 hours after reperfusion (Examples 9-12), 2.5 mg/kg
[8] = administered 4 hours after neuronal damage, Example 2 (FIG. 13)
[9] = administered 6 hours after neuronal damage (Examples 4-7)

## CC(=O)Oc1cc(C(F)(F)F)ccc1C(=O)O [2-acetoxy-4-(trifluoromethyl)benzoic acid]
[1]; [4]
  volume of cerebral infarction reduced by: 23%

## O=C(O)c1ccc(C(F)(F)F)cc1O [2-hydroxy-4-trifluoromethylbenzoic acid]
[1]; [4]
  volume of cerebral infarction reduced by: 30%

## CC(=O)Oc1ccccc1C(=O)O [acetylsalicylic acid]
[2]
  motor skill recovered to, by normal motor skill: 30%
[3]
  neuronal damage / motor skill deficit improved: very weak

## CNCCC(Oc1ccc(C(F)(F)F)cc1)c1ccccc1 (centres unmarked) [fluoxetine chloride, N-methyl-[4-(trifluoromethyl)phenoxy]benzenepropaneamine]
[1]; [5]
  volume of cerebral infarction reduced by: 59%
[1]; [6]
  concentration at which the size of cerebral infarction was inhibited most effectively: 5 mg/kg

## CCNC(=O)C(C)=O [pyruvoylaminoethane]
[1]; [7]
  volume of cerebral infarction reduced by: 20% and 25%

## chloro-2-hydroxy-5-(2,3,5,6-tetrafluoro-4-(trifluoromethyl)benzylamino)benzoate
[1]; i.v. 5 mg/kg each drug
  cerebral infarction inhibited by: 30%
[3]; [8]
  neuronal damage improved / neurologic deficit recovered: very weak

## chloro-2-hydroxy-5-(2-(2,4,5-trichlorophenoxy)ethylamino)benzoic acid
[1]; [5]
  volume of cerebral infarction reduced by: 64%
[3]; [9]
  neuronal damage improved / neurologic deficit recovered: very weak

## chloro-2-hydroxy-5-(2-(4-methoxyphenoxy)ethylamino)benzoic acid
[1]; [5]
  volume of cerebral infarction reduced by: 53%
[3]; [9]
  neuronal damage improved / neurologic deficit recovered: very weak

## chloro-2-hydroxy-5-(4-(trifluoromethyl)phenylethylamino)benzoate
[1]; [5]
  volume of cerebral infarction reduced by: 58%

## chloro-5-(2-(2,4-dichlorophenoxy)ethylamino)-2-hydroxybenzoic acid
[1]; [5]
  volume of cerebral infarction reduced by: 61%
[3]; [9]
  neuronal damage improved / neurologic deficit recovered: very weak

## chloro-5-(2-(4-chlorophenoxy)ethylamino)-2-hydroxybenzoic acid
[1]; [5]
  volume of cerebral infarction reduced by: 55%
[3]; [9]
  neuronal damage improved / neurologic deficit recovered: very weak

## ethyl pyruvate (pyruvoyloxyethane) [EP]
[1]; 5 mg/kg, 6 hours after reperfusion (FIG. 1)
  infarcted regions (TTC staining) compared with the control group: significantly decreased
[1]; i.v. 1 mg/kg, 6 hours after reperfusion, 1 h MCAO (FIG. 2)
  volume of ischemia region: not changed
[1]; i.v. 5 mg/kg each drug
  cerebral infarction inhibited by: 48%
[1]; [5]
  volume of cerebral infarction reduced by: 66%
[1]; i.v. 5 mg/kg, 30 minutes after reperfusion (FIG. 3)
  infarction volume reduced to: 17.5%
[1]; i.v. 5 mg/kg, 30 minutes before reperfusion (FIG. 3)
  infarction volume reduced to: 9.0%
[1]; i.v. 5 mg/kg, 6 hours after reperfusion (FIG. 3)
  infarction volume reduced to: 34.0%
[1]; i.v. 5 mg/kg, 6 hours after reperfusion, 1 h MCAO (FIG. 2)
  volume of ischemia region reduced to, by the control animal: 33.6%
[1]; i.v. 5 mg/kg, 9 hours after reperfusion (FIG. 3)
  infarction volume reduced to: 58.7%
[1]; i.v. 5 mg/kg, 12 hours after reperfusion (FIG. 3)
  infarction volume reduced to: 58.0%
[1]; i.v. 10 mg/kg each versus 5 mg/kg, 6 hours after reperfusion (FIG. 23)
  infarction inhibiting effect when concentration increased: the effect was not increased
[1]; i.v. 10 mg/kg, 6 hours after reperfusion, 1 h MCAO (FIG. 2)
  volume of ischemia region reduced to, by the control animal: 41.7%
[1]; i.v. 20 mg/kg, 6 hours after reperfusion, 1 h MCAO (FIG. 2)
  volume of ischemia region reduced to, by the control animal: 61.6%
[1]; [6]
  concentration at which the size of cerebral infarction was inhibited most effectively: 5 mg/kg
[2]; 6 hours after MCAO/reperfusion (FIG. 4)
  period spent on Rota-rod: significantly longer period on Rota-rod
[2]
  motor skill recovered to, by normal motor skill: 70%
Stroke animal model; administered 24 hours after ischemia-reperfusion
  size of infarction reduced: approximately 20%
Stroke animal model; administered into the abdominal cavity 12 hours after ischemia-reperfusion
  size of infarction reduced to: less than 50%
[3]; [8]
  neuronal damage improved / neurologic deficit recovered: 40%
[3]
  neuronal damage / motor skill deficit improved: 60%
[3]; [9]
  neuronal damage improved / neurologic deficit recovered: 40%
[3]; two days after MCAO/reperfusion (FIG. 5)
  neurologic deficit after MCAO/reperfusion: suppress neurologic deficit

## pyruvoylamininediethane
[1]; [7]
  volume of cerebral infarction reduced by: 40% and 31%
